PMC7515950, “Physiologically based pharmacokinetic modeling to assess metabolic drug–drug interaction risks and inform the drug label for fedratinib” (Cancer Chemotherapy and Pharmacology, 2020)
“And” between values parts separate entries of the source, which are not always exact repeats. Equal values may be shown once.

How the values were obtained:
[1] = biological target: P-gp (Homo sapiens, UniProt P08183); assay: P-gp interaction in Caco-2/TC7 (Study AIV0208); assay type: in vitro ADME; design: endogenous in cells; host or cells: Caco-2/TC7
From the text: (§1) The reported IC50 values were converted to Ki values using the Cheng-Prusoff equation [10]:
(§2) The transporter inhibition parameters (Ki) for fedratinib were derived from the experimentally determined IC50 values using the Cheng-Prusoff equation, i.e., Ki = IC50/(1+[S]/Km) with the substrate concentrations ([S]) reported in the experimental studies and the substrate Km values collected from literature, as summarized in Table 13.

[2] = PBPK parameter estimation in Simcyp (retrograde modeling, QGut, Peff, F, Fg, CLAdd); design: species or system human; details: for CLint,CYP2C19 / CLint,CYP2D6 / CLint,CYP3A4: retrograde modeling, healthy subjects
From the text: Using the retrograde modeling tool provided within Simcyp®, the intrinsic enzyme clearance (CLint) values were optimized by minimizing the differences between the model-predicted and clinically observed dose-normalized AUCinf (see Supplemental Material SM2—Metabolism Parameters), with the fractions of metabolism of CYP3A4 (fmCYP3A4) and additional hepatic enzymes (fmHLM,add) refined by the parameter sensitivity analysis on accumulation ratio for repeated-dose clinical studies (see Supplemental Material SM8). The renal clearance (CLR) and additional systemic clearance (CLadd) were provided as input parameters estimated from the clinical data (see Supplemental Material SM2—Excretion Parameters). The PBPK distribution parameters (including Vss, Vsac, and Q) were directly derived from the compartmental modeling of plasma PK data obtained from healthy subjects administered 500 mg fedratinib single doses, and then provided as input parameters without further modifications (see Supplemental Material SM2—Distribution Parameters).
By default, the QGut is set to be the mean value (i.e., 6.5 L/h) in the PBPK model of fedratinib.
As CYP3A4 is the dominant form of CYP3A in the liver, all metabolic contribution from CYP3A was assigned to CYP3A4 in this PBPK model. The default “Healthy Volunteers” population was used for the retrograde modeling. […] The Fg value required for retrograde modeling was initially set as default 1 and then adjusted to ~0.8 based on model prediction. […] The clearance values derived above for fedratinib in healthy subjects were assumed to be the same for cancer patients including myelofibrosis (MF) patients and patients with refractory solid tumors.
The biliary excretion of unchanged drug accounts for 2.3% of the total intravenous dose in bile-duct cannulated (BDC) rats.

[3] = biological target: T1, CYP3A4 (Homo sapiens, UniProt P08684); assay: CYP reversible and mechanism-based inhibition in human liver microsomes (MIH0887), CYP3A4; assay type: in vitro ADME
T1 construct: from tissue; host or cells: human liver microsomes
Experimental: (§3) The CYP enzyme reverse inhibition and mechanism-based inhibition (MBI) parameters were estimated in the human liver microsome (HLM) incubation in vitro studies. The reported reversible inhibition parameter (i.e., apparent Ki) values for CYP2C8, CYP2C9, and CYP2D6, along with the MBI parameters (i.e., KI or Kapp and kinact) for CYP2C19 and CYP3A4, were supplied to the PBPK DDI model (see Table 2).

[4] = biological target: T2, OCT1 (Homo sapiens, UniProt O15245); assay: OCT1 inhibition, CHO-hOCT1 cells (TRI0013); assay type: in vitro ADME
T2 construct: expressed in transfected cells; host or cells: CHO^Fi-hOCT1
T2 sequence (O15245 1-554): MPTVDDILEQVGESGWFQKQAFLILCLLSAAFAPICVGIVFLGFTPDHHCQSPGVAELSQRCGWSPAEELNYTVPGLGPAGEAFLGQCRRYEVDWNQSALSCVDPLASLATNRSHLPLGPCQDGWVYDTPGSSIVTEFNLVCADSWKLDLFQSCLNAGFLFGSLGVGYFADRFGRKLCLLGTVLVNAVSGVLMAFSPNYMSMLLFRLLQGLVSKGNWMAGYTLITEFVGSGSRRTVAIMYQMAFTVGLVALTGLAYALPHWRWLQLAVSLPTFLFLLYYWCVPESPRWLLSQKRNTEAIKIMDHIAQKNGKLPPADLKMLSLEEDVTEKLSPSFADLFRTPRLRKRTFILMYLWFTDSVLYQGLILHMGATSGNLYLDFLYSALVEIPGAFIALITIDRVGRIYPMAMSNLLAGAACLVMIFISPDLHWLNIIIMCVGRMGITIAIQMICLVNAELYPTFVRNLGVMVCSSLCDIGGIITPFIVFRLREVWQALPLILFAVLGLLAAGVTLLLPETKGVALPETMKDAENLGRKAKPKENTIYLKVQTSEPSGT
From the text: as §1, §2

[5] = biological target: T3, CYP2C8 (Homo sapiens, UniProt P10632); assay: CYP inhibition in human liver microsomes (MIH0887), CYP2C8; assay type: in vitro ADME; details: HLM, apparent Ki, reversible inhibition
T3 construct: from tissue; host or cells: human liver microsomes
T3 sequence (P10632 1-490): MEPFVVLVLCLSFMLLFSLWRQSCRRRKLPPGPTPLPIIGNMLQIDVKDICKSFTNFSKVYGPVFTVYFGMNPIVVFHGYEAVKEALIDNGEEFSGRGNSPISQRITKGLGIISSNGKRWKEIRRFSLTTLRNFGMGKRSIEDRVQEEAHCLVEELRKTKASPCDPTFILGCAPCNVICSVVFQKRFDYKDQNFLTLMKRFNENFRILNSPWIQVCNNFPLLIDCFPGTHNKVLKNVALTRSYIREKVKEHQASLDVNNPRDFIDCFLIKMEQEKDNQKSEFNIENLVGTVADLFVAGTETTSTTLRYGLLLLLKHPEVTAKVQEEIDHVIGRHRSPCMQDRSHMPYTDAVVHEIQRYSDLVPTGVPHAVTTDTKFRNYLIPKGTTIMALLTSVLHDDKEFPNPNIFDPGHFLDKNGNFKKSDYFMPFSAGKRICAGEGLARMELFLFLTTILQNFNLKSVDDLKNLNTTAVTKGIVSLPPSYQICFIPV
Experimental: as §3

P-gp, sequence (P08183 whole entry): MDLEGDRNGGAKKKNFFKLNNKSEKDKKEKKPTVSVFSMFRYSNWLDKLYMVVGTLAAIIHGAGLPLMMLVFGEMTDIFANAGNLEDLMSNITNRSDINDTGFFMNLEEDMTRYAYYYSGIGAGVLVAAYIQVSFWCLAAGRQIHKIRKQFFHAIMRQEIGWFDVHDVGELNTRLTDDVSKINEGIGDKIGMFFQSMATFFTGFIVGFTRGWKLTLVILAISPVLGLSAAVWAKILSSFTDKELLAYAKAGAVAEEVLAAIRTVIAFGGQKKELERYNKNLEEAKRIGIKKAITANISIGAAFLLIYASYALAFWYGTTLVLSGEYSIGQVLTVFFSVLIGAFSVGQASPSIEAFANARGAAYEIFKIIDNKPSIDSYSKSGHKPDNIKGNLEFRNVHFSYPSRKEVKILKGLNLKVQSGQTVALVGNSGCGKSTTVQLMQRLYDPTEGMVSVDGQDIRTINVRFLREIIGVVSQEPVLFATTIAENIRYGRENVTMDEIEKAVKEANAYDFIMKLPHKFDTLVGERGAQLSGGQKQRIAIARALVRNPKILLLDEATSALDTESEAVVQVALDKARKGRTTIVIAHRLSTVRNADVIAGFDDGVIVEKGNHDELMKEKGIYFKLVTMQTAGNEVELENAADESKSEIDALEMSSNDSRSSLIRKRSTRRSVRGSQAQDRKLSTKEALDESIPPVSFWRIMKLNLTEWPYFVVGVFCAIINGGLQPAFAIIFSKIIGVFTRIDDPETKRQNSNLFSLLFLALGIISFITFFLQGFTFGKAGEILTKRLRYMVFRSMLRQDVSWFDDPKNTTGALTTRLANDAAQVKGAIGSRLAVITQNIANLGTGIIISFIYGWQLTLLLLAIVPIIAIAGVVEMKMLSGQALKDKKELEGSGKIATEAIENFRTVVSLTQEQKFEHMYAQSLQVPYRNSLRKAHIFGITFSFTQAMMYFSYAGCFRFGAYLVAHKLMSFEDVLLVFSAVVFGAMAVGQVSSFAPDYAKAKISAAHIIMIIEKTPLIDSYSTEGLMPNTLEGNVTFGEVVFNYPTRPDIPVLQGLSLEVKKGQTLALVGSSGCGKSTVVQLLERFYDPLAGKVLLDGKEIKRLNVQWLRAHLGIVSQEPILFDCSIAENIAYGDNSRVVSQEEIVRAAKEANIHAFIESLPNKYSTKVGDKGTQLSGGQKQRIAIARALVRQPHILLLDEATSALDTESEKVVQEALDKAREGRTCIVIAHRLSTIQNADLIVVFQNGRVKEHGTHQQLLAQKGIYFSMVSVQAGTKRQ
T1 sequence (P08684 2-503 limits assumed): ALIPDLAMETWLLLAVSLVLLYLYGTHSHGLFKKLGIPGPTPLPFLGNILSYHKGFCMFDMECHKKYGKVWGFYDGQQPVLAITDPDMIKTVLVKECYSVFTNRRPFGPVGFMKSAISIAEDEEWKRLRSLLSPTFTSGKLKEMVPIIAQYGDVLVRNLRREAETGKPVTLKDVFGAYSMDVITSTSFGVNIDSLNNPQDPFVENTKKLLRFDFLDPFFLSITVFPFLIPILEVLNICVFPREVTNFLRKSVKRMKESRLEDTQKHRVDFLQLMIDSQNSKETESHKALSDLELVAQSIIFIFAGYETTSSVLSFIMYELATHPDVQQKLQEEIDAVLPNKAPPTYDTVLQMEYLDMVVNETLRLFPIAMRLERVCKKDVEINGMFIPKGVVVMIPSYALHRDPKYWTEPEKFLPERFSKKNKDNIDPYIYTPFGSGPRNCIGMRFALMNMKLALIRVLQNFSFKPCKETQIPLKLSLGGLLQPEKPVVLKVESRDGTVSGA

P-gp substrate in vitro [1]: substrate | Ki ([1]; from IC50 by Cheng-Prusoff, probe digoxin): 10 µM | IC50 ([1]; probe digoxin 5 μM): 10.1 µM | clearance ([2]; human, oral, read-out: CLAdd (additional systemic clearance) (converted)): ~11.2 mL/min | biliary excretion percentage assumed in humans ([2]; oral dose, assumed from rat data): ~ 2% | CLint,CYP2C19 [2]: 1.25 mL/min/pmol of isoform | CLint,CYP2D6 [2]: 0.258 mL/min/pmol of isoform | CLint,CYP3A4 [2]: 0.610 mL/min/pmol of isoform | CLint,CYP2D6 ([2]; listed as fedratinib): 0.258 μL/min/pmol of isoform | CLint,CYP3A4 ([2]; listed as fedratinib): 0.610 μL/min/pmol of isoform | CLpo used for retrograde calculation ([2]; updated so that predicted dose-normalized AUC agrees with observation): 48 L/h | Ki ([3]; HLM, assuming Ki = IC50/2): 9.55 µM | CYP3A4 KI or Kapp ([3]; HLM, mechanism-based inhibition): 1.57 µM | CYP3A4 KI or Kapp ([3]; HLM, mechanism-based inhibition, listed as fedratinib): 1.570 µM | kinact ([3]; human, human liver microsomes, HLM, mechanism-based inhibition): 0.000717 s⁻¹ | IC50 ([3]; midazolam as substrate, absence of NADPH during pre-incubation, read-out: CYP3A IC50): 19.1 µM | Ki ([4]; from IC50 by Cheng-Prusoff, probe TEA): 5.59 µM | IC50 ([4]; probe TEA 25 μM): 6.06 µM | Ki [5]: 50.4 µM
Compound: Cc1cnc(Nc2ccc(OCCN3CCCC3)cc2)nc1Nc1cccc(S(=O)(=O)NC(C)(C)C)c1 [Fedratinib]
CLint,CYP2C19 ([2]; listed as fedratinib): 1.25 μL/min/pmol of isoform and 1.253 μL/min/pmol of isoform
